The text below walks through data of ChEMBL document CHEMBL5729069, “4,6 dihydropyrrolo [3,4-C] pyrazole-5 (1H)-carbonitrile derivates for treating cancer” (2022).

The term IC50 denotes the point on the concentration scale where inhibition reaches its midpoint.

For this assay, the target named is Ubiquitin carboxyl-terminal hydrolase 7 (Homo sapiens, UniProt Q93009). Description: Biochemical Assay: Dilution plates were prepared at 21 times the final concentration (2100 μM for a final concentration of 100 μM) in 50% DMSO in a 96-well polypropylene V-bottom plate (Greiner #651201). A typical 8-point dilution series would be 100, 30, 10, 3, 1, 0.3, 0.1, 0.03 μM final. Reactions were performed in duplicate in black 384 well plates (small volume, Greiner 784076) in a final reaction volume of 21 μl. Either 1 μl of 50% DMSO or diluted compound was added to the plate. USP7 was diluted in reaction buffer (20 mM Tris, pH 7.5, 100 mM NaCl, 0.05% Tween 20, 0.5 mg/ml BSA, 5 mM—beta mercaptoethanol) to the equivalent of 0.0025 μl/well and 10 μl of diluted USP7 was added to the compound. Enzyme and compound were incubated for 30 min at room temp. Reactions were initiated by the addition of 50 nM of TAMRA labelled peptide linked to ubiquitin via an iso-peptide bond as fluorescence polarisation substrate. Reactions were read immediately after addition of substrate and following a 2 hr incubation at room temperature. Readings were performed on a Pherastar Plus (BMG Labtech). λ Excitation 540 nm; λ Emission 590 nm. (Polarisation of emitted light reports the rotation of a fluorescent probe.)
Ubiquitin carboxyl-terminal hydrolase 7, sequence (Q93009 whole entry): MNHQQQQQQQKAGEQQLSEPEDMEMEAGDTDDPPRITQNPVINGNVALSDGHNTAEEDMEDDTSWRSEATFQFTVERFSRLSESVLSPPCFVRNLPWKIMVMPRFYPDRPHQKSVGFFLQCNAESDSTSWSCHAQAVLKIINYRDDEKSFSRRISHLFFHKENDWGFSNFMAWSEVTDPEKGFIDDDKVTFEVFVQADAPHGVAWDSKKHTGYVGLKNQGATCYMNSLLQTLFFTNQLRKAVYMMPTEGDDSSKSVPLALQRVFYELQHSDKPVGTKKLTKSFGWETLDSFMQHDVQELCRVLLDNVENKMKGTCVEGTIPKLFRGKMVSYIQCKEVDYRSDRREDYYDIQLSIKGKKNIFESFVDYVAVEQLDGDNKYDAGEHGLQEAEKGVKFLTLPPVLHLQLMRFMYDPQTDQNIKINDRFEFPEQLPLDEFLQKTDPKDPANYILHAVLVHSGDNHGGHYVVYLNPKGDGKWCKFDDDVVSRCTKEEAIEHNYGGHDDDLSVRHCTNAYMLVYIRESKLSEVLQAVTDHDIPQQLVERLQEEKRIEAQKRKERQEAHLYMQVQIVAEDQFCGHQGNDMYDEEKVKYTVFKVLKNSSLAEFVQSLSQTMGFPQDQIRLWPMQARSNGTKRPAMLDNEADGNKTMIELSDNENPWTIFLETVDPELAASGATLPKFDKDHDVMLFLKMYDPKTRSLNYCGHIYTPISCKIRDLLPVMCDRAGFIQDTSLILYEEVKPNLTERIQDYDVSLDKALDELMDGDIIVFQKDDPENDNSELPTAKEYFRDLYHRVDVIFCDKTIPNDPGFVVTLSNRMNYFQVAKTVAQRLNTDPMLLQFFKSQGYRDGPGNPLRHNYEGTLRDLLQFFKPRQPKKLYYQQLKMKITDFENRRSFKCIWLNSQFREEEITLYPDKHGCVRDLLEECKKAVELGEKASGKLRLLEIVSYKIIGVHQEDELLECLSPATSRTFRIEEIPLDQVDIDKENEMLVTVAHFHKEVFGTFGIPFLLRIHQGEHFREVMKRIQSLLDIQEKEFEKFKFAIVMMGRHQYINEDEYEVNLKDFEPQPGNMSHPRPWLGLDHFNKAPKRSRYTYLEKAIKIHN

Structures are written as SMILES.

Take `N#CN1Cc2[nH]nc(-c3cccc(N4CCCC4=O)c3)c2C1`: the IC50 is below 10 µM.
`N#CN1Cc2[nH]nc(-c3cccc(N4CCOC4=O)c3)c2C1`: the 50% inhibitory concentration (IC50) was below 10 µM.
